Measured values from patent publication US20140350050A1, “PYRIDINE COMPOUNDS AS INHIBITORS OF KINASE” (TELIGENE LTD., priority 2011, published 2014).
Read-outs that look alike come from different tables or passages of the source.

Columns and labels:
[1] = target: T1, BAF3-EML4-ALK stable cell line (Homo sapiens, UniProt Q9UM73); assay: BAF3-EML4-ALK cell assay (MTT cell proliferation); assay type: cell-based; conditions: 72 hours, read-out: BAF3-EML4-ALK Cell (IC50 grading)
T1 construct: fused on or other part: Q9HC35 (Echinoderm microtubule-associated protein-like 4)
Protocol: BAF3-EML4-ALK Cell Assay:
A method of establishing BAF3-EML4-ALK stable cell line: Transfer 5×10^6 BAF3 cells to a new tube, pellet the cells, and remove PBS by aspiration.; Resuspend the cells in 1 ml electroporation buffer, this provides 5×10^6 of cells; Transfer 200 μl of cell suspension to EP tube, add 5 ug DNA, flip and place it on ice for 10 min; Pipet the 200 μl cell suspension into 2 mm electroporation cuvette; Place the cuvette into shockpod, close the lid, and press the PULSE button; Set parameters: Expentional decay pulse: VOL=200 V; CAP=900 uF, RES=1000Ω; Transfer all cells from electroporation cuvette to 6 well plate, adding 2 ml DMEMF12 containing 5 ng/ml IL3, 24 h later, replace the medium with DMEM F12 containing 2 μg/ml blasticidin S and 5 ng/ml IL3, maintain for 3 days; change the medium with DMEM F12 containing 2 ug/ml blasticidin S and 2.5 ng/ml IL3, maintain 3 days; change the medium with DMEM F12 containing 2 ug/Ml blasticidin S, maintain to culture.
MTT Cell proliferation assay: 5×10^3 per well cell with 100 μl medium was seeded in 96-well plate; 24 hours later, 100 μl fresh medium with various concentration of compounds; After the cells were treated by compounds for 72 hours, add 20 μl MTT (5 mg/ml) into each wells; The plate is incubated at 37° C. for 4 hours; Centrifuge the plate at 800 g for 10 mins, Aspirated the medium, add 150 μl DMSO into each well. Shake plates gently for 10 mins, Measure the absorbance at 570 nm on plate reader; IR=(WC−WT)/WC.

ALK kinase = ALK kinase (Homo sapiens, UniProt Q9UM73); assay: ALK kinase assay; assay type: biochemical
Protocol: An in vitro assay which determines the ability of a test compound to inhibit ALK kinase. a) kinase-tagged T7 phage strains were prepared in an E. coli host derived from the BL21 strain. E. coli were grown to log-phase and infected with T7 phage and incubated with shaking at 32° C. until lysis. The lysates were centrifuged and filtered to remove cell debris. The remaining kinases were produced in HEK-293 cells and subsequently tagged with DNA for qPCR detection. […] The liganded beads were blocked with excess biotin and washed with blocking buffer (SeaBlock (Pierce), 1% BSA, 0.05% Tween 20, 1 mM DTT) to remove unbound ligand and to reduce non-specific binding. […] All reactions were performed in polystyrene 96-well plates in a final volume of 0.135 ml. […] The kinase concentration in the eluates was measured by qPCR. […]
b) An alternative method to conduct the kinase assay with the following condition and procedure: Reagent: Base Reaction buffer; 20 mM Hepes (pH 7.5), 10 mM MgCl2, 1 mM EGTA, 0.02% Brij35, 0.02 mg/ml BSA, 0.1 mM Na3VO4, 2 mM DTT, 1% DMSO.
1. Preparing indicated substrate in freshly prepared Base Reaction Buffer
2. Delivering any required cofactors to the substrate solution above
3. Delivering indicated kinase into the substrate solution and gently mix
4. Delivering compounds in DMSO into the kinase reaction mixture
5. Delivering ^33P-ATP (specific activity 0.01 μCi/μl final) into the reaction mixture to initiate the reaction.
6. Incubating kinase reaction for 120 min. at room temperature
7. Reactions are spotted onto P81 ion exchange paper (Whatman #3698-915)
8. Washing filters extensively in 0.75% Phosphoric acid. […]
c) An alternative method to conduct the kinase assay with the following condition and procedure: The assay was performed using Kinase-Glo Plus luminescence kinase assay kit (Promega). It measures kinase activity by quantitating the amount of ATP remaining in solution following a kinase reaction. The luminescent signal from the assay is correlated with the amount of ATP present and is inversely correlated with the amount of kinase activity.
The compound were diluted in 10% DMSO and 5 μl of the dilution was added to a 50 μl reaction so that the final concentration of DMSO is 1% in all of reactions. All of the enzymatic reactions were conducted at 30° C. for 40 minutes. The 50 μl reaction mixture contains 40 mM Tris, pH 7.4, 10 mM MgCl2, 0.1 mg/ml BSA, 1 mM DTT, 0.2 mg/ml substrate peptide, 10 μM ATP and ALK (Table 2.3.1). After the enzymatic reaction, 50 μl of Kinase-Glo Plus Luminescence kinase assay solution (Promega) was added to each reaction and incubate the plate for 5 minutes at room temperature. Luminescence signal was measured using a BioTek Synergy 2 microplate reader. ALK activity assays were performed in duplicate at each concentration. The luminescence data were analyzed using the computer software, Graphpad Prism. The difference between luminescence intensities in the absence of ALK (Lut) and in the presence of ALK (Luc) was defined as 100% activity (Lut−Luc). Using luminescence signal (Lu) in the presence of the compound, % activity was calculated as % activity={(Lut−Lu)/(Lut−Luc)}×100%, where Lu=the luminescence intensity in the presence of the compound (all percent activities below zero were shown zero in the table). The values of % activity versus a series of compound concentrations were then plotted using non-linear regression analysis of Sigmoidal dose-response curve generated with the equation Y=B+(T−B)/1+10^((Log EC50−X)×Hill Slope), where Y=percent activity, B=minimum percent activity, T=maximum percent activity, X=logarithm of compound and Hill Slope=slope factor or Hill coefficient. The IC50 value was determined by the concentration causing a half-maximal percent activity.

[2] = system: EML4-ALK-BAF3 cell line xenograft; assay type: in vivo; conditions: 40 mg/kg oral gavage once daily
Source text: A representative protocol for the in vivo experiment is as followed to establish the subcutaneous EML4-ALK-BAF3 cell line xenograft model in nude mice and to evaluate the in vivo therapeutic efficacy of the compounds: Animals: Male Balb/c nude mice (6˜8 weeks old) were obtained from SLAC Laboratory Animal, Shanghai, China. Animals were maintained under SPF conditions in sterile filter top cages and housed on HEPA-filtered ventilated racks. Animals received sterile rodent chow and water ad libitum. Cell line: BAF3-EML4-ALK stable cell line, the BAF3 cell which could expressed fusion oncogene EML4-ALK. S.c. Xenograft Models in Athymic Mice: Cells for implantation into athymic mice were harvested and pelleted by centrifugation at 1200 r/min for 5 min. Cells were washed once and resuspended in sterile PBS buffer with 5×10^6 in 200 μl. Then cells were implanted s.c. into the right scapular region of each mouse and allowed to grow to 200˜300 mm^3 before the administration of compound. Preparation of the Dose Formulation: each compound was suspensioned in 0.5% CMC-Na. Randomization: When tumor volumes approach 200˜300 mm^3, the mice will be randomized into 5 groups according to the tumor volume. The day will be denoted as D1 and the treatments will be started at this day. Administered: Dose will be administered with oral gavage needle once daily for number of days. Treatment of compounds administered in 0.5% CMC-Na by p.o. gavage was initiated when tumors were 200˜300 mm^3 in volume. Observations: After inoculation, the animals will be checked daily for morbidity and mortality. At the time of routine monitoring, the animals will be checked for any effects of tumor growth and treatments on normal behavior such as mobility, body weight gain/loss (body weights will be measured twice weekly or every other day), eye/hair matting and any other abnormal effect. Death and observed clinical signs will be recorded on the basis of the numbers of animals within each subset. Tumor Size Measurements: Tumor volume was determined by measurement with electronic vernier calipers every 3 days and tumor volume was calculated as the product of its length×width^2×0.5. Effect studies: Tumor volume was expressed on indicated days as the mean tumor volume ±SD. […] Significant differences between the treated versus the control groups (p<0.05) were determined using t test. At study endpoint, after blood collection, mice were practiced euthanasia by cervical dislocation, the tumor tissue was collected first, then abdominal cavity was cut open, liver and spleen were excised, then weight after the gallblader was removed respectively. Organ weight and Organ/body weight ratios between the treated versus the control groups were compared. Ratios was calculated as follows: Ratios=Organ weight/(body weight-tumor weight). Both organ weight and Organ/body weight ratios were also expressed as mean±SD, and significant differences between the treated versus the control groups (p<0.05) were determined using t test.

[3] = ALK kinase assay, read-out: ALK (IC50 grading)

Sequence of ALK kinase (Q9UM73 19-1620): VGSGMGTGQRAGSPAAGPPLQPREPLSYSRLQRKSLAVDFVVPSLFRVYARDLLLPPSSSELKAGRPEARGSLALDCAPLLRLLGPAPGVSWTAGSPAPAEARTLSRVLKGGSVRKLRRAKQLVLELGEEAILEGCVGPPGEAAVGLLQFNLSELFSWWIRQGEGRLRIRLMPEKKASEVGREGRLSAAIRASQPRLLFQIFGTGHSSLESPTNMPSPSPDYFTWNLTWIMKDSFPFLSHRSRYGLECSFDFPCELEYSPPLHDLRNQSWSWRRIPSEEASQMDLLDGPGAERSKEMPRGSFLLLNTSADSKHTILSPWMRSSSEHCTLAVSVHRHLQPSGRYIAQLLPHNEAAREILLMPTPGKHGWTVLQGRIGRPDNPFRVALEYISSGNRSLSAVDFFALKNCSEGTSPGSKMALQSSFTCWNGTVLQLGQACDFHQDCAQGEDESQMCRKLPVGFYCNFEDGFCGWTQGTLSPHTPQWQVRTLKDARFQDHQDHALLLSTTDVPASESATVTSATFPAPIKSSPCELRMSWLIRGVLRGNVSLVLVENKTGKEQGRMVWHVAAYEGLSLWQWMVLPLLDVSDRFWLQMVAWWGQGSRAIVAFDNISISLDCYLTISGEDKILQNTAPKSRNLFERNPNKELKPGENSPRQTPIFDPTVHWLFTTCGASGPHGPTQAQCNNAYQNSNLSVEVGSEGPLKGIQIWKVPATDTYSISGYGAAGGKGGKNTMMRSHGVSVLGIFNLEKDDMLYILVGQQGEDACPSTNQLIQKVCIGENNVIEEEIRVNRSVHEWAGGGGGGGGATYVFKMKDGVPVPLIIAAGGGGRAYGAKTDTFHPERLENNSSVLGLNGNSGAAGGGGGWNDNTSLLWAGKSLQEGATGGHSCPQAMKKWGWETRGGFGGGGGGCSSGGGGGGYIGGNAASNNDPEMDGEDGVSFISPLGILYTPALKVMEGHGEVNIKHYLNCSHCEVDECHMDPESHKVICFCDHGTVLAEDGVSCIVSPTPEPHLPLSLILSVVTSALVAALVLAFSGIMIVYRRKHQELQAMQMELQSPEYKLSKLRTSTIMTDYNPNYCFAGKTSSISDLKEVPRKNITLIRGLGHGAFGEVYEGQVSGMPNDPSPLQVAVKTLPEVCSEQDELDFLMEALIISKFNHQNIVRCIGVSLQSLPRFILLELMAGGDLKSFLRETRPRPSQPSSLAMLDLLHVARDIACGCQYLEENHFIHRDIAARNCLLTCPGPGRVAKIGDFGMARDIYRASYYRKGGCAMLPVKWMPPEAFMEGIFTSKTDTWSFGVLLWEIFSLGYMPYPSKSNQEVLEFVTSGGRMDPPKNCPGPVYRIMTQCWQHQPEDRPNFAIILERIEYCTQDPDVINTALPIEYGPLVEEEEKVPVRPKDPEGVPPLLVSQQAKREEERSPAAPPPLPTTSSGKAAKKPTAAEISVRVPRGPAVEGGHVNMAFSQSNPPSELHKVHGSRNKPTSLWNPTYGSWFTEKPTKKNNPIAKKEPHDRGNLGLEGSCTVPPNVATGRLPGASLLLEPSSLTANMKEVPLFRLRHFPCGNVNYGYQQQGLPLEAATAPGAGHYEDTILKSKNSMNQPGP
T1 sequence (Q9UM73 whole entry, change not shown, the tested form may be a part): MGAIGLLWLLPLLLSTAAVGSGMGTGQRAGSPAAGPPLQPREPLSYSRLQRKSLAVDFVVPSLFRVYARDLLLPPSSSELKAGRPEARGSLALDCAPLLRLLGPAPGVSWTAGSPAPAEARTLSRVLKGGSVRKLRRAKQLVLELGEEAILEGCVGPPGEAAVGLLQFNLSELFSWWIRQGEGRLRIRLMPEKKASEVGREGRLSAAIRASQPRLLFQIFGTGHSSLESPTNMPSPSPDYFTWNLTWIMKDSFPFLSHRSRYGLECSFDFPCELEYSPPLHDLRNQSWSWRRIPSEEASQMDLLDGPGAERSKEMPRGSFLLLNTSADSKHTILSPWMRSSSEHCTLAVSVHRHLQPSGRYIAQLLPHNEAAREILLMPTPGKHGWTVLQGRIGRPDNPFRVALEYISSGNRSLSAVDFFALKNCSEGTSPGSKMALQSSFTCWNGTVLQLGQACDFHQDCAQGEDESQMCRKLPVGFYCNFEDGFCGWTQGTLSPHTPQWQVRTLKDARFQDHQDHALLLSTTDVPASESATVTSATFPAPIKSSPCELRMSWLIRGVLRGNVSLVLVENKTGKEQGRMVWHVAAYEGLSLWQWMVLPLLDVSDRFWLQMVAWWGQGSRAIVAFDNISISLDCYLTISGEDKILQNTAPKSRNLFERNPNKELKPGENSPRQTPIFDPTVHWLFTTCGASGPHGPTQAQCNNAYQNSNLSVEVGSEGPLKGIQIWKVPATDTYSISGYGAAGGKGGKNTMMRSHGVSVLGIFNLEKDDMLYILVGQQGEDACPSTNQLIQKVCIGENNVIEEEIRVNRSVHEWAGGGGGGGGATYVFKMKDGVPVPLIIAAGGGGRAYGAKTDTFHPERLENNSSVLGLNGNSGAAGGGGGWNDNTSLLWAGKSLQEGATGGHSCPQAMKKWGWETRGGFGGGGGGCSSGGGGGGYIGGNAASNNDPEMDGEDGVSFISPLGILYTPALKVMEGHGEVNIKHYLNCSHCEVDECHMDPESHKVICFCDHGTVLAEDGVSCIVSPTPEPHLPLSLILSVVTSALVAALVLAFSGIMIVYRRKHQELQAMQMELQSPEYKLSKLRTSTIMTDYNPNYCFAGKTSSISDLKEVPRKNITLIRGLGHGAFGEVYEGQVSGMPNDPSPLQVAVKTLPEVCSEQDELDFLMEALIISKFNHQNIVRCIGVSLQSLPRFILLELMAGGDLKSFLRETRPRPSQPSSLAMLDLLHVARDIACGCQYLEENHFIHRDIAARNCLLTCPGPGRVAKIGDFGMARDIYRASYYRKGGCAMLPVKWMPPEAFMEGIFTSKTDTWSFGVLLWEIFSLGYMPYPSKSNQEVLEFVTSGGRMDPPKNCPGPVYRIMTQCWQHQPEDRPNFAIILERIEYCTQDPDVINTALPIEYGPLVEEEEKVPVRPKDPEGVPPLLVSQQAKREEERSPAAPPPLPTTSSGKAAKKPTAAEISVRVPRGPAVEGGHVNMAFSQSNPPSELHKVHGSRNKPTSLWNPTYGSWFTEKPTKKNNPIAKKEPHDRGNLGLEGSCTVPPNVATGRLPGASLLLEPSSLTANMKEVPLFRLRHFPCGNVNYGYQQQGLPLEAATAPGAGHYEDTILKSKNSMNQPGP

Row | GI50 [1] | IC50 (ALK kinase; [3]) | IC50 (ALK kinase; read-out: IC50 in the ALK kinase assay) | liver weight at the end of the study ([2]; control group 1.523) | SMILES | Tumor growth inhibition (TGI, %) ([2]; Table C, day 2) | Tumor growth inhibition (TGI, %) ([2]; Table C, day 5) | Tumor growth inhibition (TGI, %) ([2]; Table C, day 8) | Tumor growth inhibition (TGI, %) ([2]; Table C, day 11) | Tumor growth inhibition (TGI, %) ([2]; Table C, day 14) | Tumor growth inhibition (TGI, %) ([2]; Table B, day 4) | Tumor growth inhibition (TGI, %) ([2]; Table B, day 7) | Tumor growth inhibition (TGI, %) ([2]; Table B, day 9)
1 | ≤ 100 nM | ≤ 100 nM | 2.6 nM | – | [2H]C([2H])([2H])N1CCC(n2cc(-c3cnc(N)c(O[C@H](C)c4c(Cl)ccc(F)c4Cl)c3)cn2)CC1 [Compound 20, (R)-3-(1-(2,6-dichloro-3-fluorophenyl)ethoxy)-5-(1-(1-d3-methylpiperidin-4-yl)-1H-pyrazol-4-yl)pyridin-2-amine] | 29.80% | 58.20% | 71.73% | 90.29% | 92.09% | – | – | –
2 | ≤ 100 nM | ≤ 100 nM | – | 1.318 gram | CC(=O)Nc1ncc(-c2cnn(C3CCNCC3)c2)cc1O[C@H](C)c1c(Cl)ccc(F)c1Cl [Compound 18, (R)—N-(3-(1-(2,6-dichloro-3-fluorophenyl)ethoxy)-5-(1-(piperidin-4-yl)-1H-pyrazol-4-yl)pyridin-2-yl)acetamide] | – | – | – | – | – | 24.11% | 38.91% | 39.08%
